Ends that are not written are not given here.
Experiment: 24 h transdermal penetration through mouse skin in vitro, single-chamber diffusion cell, BCA determination
Format: in vitro ADME, Kunming mice
Settings: collagen peptides, 5 mg/ml in 0.9% NaCl, diffusion area 2.0 cm^2, 37.5° C., receiving solution after 24 h, BCA kit
Experimental: 10 Kunming mice of 20 to 22 g with half male and half […] were used in the experiment. After the mice were killed, the hairs on the abdomen were removed. Then the skin on the hair-removed area was peeled off, stripped of fat and grain, and rinsed repeatedly with distilled water. After being washed, the mouse skins were rinsed with normal saline, then treated with 10% glycerol, and stored at −20° C. for use (used up within 7 days).
Single-chamber diffusion cell: The effective diffusion area of the diffusion cell is 2.0 cm^2, the volume of the receiving cell is 14 ml, the length of the custom-made stirrer is 1.4 cm, and the receiving liquid is 0.9% NaCl solution.
The stored mouse skin was taken out, thawed, washed with normal saline, and sandwiched between the receiving chamber and the supplying chamber, with the medicated side facing the supplying chamber and the skin side facing the receiving chamber. The temperature of the water bath system was adjusted to 37.5° C., and the stirring speed was adjusted to 100 rpm/min. 0.9% NaCl solution pre-warmed at 37° C. was added to the receiving chamber and the air bubbles were exhausted. In order to reduce the interference, the inner surface of the mouse skin was firstly contacted with the receiving solution without medication and all the receiving solution was replaced. Then the 18 collagen peptides synthesized were prepared into 5 mg/ml solutions using 0.9% NaCl respectively, which were injected into the supplying chamber and firmly adhere to the mouse skin respectively. After 24 h, part of the receiving solution was absorbed with a syringe as the sample solution to determine the transdermal amount of collagen peptide.
The BCA kit method was used to determine the polypeptide content in the sample solution. […]

Sequence | 24 h penetration amount
GERGAAGLPGPKGDRGDAGPK [compound 14] | 3745.15 µg
GDLGAPGPSGARGERGFPGER [compound 11] | 2994.13 µg
GERGVQGPPGPAGPRGANGAP [compound 12] | 3103.23 µg
GEQGVPGDLGAPGPSGARGER [compound 9] | 3341.78 µg
GPPGKNGDDGEAGKPGRPGER [compound 1] | 3041.21 µg
GAPGAPGSQGAPGLQGMPGER [compound 13] | 4048.04 µg
GERGPPGPMGPPGLAGPPGES [compound 18] | 3308.22 µg
GERGFPGERGVQGPPGPAGPR [compound 10] | 2992.77 µg
GLPGPSGEPGKQGPSGASGER [compound 17] | 3498.56 µg
GERGRPGAPGPAGARGNDGAT [compound 4] | 3124.48 µg
GPQGIAGQRGVVGLPGQRGER [compound 15] | 3111.47 µg
GERGGPGSRGFPGADGVAGPK [compound 6] | 3253.23 µg
GKRGARGEPGPTGLPGPPGER [compound 5] | 3023.05 µg
GERGFPGLPGPSGEPGKQGPS [compound 16] | 3034.99 µg
GERGPPGPQGARGLPGTAGLP [compound 2] | 3697.14 µg
GERGVPGPPGAVGPAGKDGEA [compound 8] | 3113.64 µg
GSPGENGAPGQMGPRGLPGER [compound 3] | 3213.66 µg
GVMGFPGPKGAAGEPGKAGER [compound 7] | 3389.09 µg

— US20250154228A1, “HIGH-TRANSDERMAL-ABSORPTION PEPTIDE AND RECOMBINANT COLLAGEN CONSTRUCTED BY MEANS OF REPETITIONS OF PEPTIDE” (XI'AN GIANT BIOGENE TECHNOLOGY CO., LTD, priority 2022, published 2025)
